This is an account of results in PubChem BioAssay (NCI).

Holding throughout (experiment): NCI-60 cell line screen, 48 h
Test [1] relates to DMS 114 small cell lung.
Test [2] deals with HT29 colon.
Test [3] relates to K-562 leukemia.
In test [4] the test system is KM12 colon.
Test [5] has as its system OVCAR-8 ovarian.
The test system of test [6] is SF-295 CNS.
Test [7] has as its system SK-MEL-5 melanoma.
Test [8] has as its system SK-OV-3 ovarian.
The test system of test [9] is SNB-78 CNS.
The subject of test [10] is HS 578T breast.

Each structure is given as a SMILES string.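 Step 1: Grow cells in 96-well plates. Step 2: Expose to compound for 48 hours at 5 concentrations. Step 3: Interpolate endpoints linearly; if unreached, use highest concentration. TGI marks complete inhibition of growth.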

With `Nc1c(O)cc(N=C2C(=O)C=CC=C2C(=O)O)c(O)c1C(=O)O`, the TGI in test [1], in test [2], in test [3], in test [4], in test [5] and in test [6] was above 100 µM each time. In addition, the TGI in [7], in test [8] and in test [9] was above 100 µM each time.

Take `Cc1cc(-c2ccccc2)nc(Nc2nc3ccccc3o2)n1`: the TGI in test [1], in test [2], in [3], in test [4], in test [5] and in [6] was above 100 µM in each case. Also, the TGI in test [7], in test [8] and in test [9] was above 100 µM throughout.

In the case of `COC(=O)C1=C(c2ccc(OC)c(OC)c2)OC(c2cc(OC)c(OC)c(OC)c2)C1` (configuration not stated), the TGI in test [1], in [2], in [3], in [4], in test [5] and in [6] was above 100 µM throughout. The TGI in test [7] is above 100 µM; in [8], 56.8 µM; in [9], 68.5 µM.

Take `CN=C(NC(=S)N(C)C)N(C)C`: the TGI in test [1], in test [2], in test [3], in test [4], in test [5] and in test [6] was above 100 µM in each case. Moreover, the TGI in [7], in test [8] and in test [9] was above 100 µM each time.

Regarding `O=C(CC1(O)C(=O)Nc2ccc(Br)cc21)c1ccc(Cl)cc1Cl` (configuration not stated), the TGI in [1] is 46.8 µM; in test [2], above 100 µM; in test [3], above 100 µM; in test [4] it was above 100 µM; in [5] it was above 100 µM; in test [6] it was above 100 µM. Also, the TGI in [8] and in test [9] was above 100 µM in each case.

Regarding `S=c1nc(COc2ccc(Cl)cc2Cl)[nH][nH]1`, the TGI in test [1], in test [2], in test [3], in test [5], in test [6] and in test [7] was above 100 µM each time. Further, the TGI in [9] was above 100 µM.

Turning to `S=c1[nH]nc(Cc2ccccc2)c(=S)[nH]1`, the TGI in [10], in test [2], in [3], in test [4], in test [5] and in test [6] was above 100 µM each time. For the same compound, the TGI in test [7] was above 82.2 µM; in test [8] it was above 100 µM; in test [9], above 100 µM.

`O=C1NC(=O)C(=Nc2cccc3c(=O)[nH][nH]c(=O)c23)C(c2nc3ccccc3s2)C1=O` (configuration not stated): the TGI in [1], in [2], in test [4], in test [5], in [6] and in [7] was above 100 µM throughout. Besides, the TGI in test [8] and in test [9] was above 100 µM each time.

With `Cc1noc2c1C(=O)CCC2`, the TGI in [1], in test [2], in [3], in test [5], in test [8] and in test [9] was above 100 µM each time.

Consider `O=C1C2=C(c3ccccc31)C(c1ccccc1)N1C(=O)CSC1=N2` (configuration not stated), for which the TGI was above 100 µM in [1]; 82.2 µM in [10]; 96.9 µM in test [2]; above 100 µM in [3]; above 100 µM in test [4]; above 100 µM in test [5]. In addition, the TGI in [6], in test [7] and in test [8] was above 100 µM in each case.

`CN(C)c1ccc(/C=C/c2ccc(/C=C/c3ccc(N(C)C)cc3)cc2)cc1`: the TGI in test [2], in test [3], in test [4], in test [5], in [6] and in test [7] was above 100 µM each time. Moreover, the TGI in test [8] and in test [9] was above 100 µM in each case.

For `O=C(CSc1ncn[nH]1)C[P+](c1ccccc1)(c1ccccc1)c1ccccc1`, the TGI in test [1], in test [3], in [4], in [5], in [6] and in [7] was above 100 µM in each case. Also, the TGI in test [8] and in test [9] was above 100 µM in each case.

Consider `CN(C)C(=Nc1nc(=[N+](C)C)ss1)N(C)C`, for which the TGI in test [1], in test [2], in [3], in test [4], in test [5] and in test [6] was above 100 µM in each case. Further, the TGI in [7] and in [8] was above 100 µM each time.
